In the NIST ThermoML archive (doi:10.1021/je050527x):
Numbers after ± are expanded uncertainties.

Columns and labels:
[1] = Liquid; for mass density: 101.33 kPa; for Normal boiling temperature: Fischer boiling-point apparatus
[2] = refractive index (Na D-line) (dimensionless); conditions: 293.1 K; 101.33 kPa; Liquid; Standard Abbe refractometry

Row | mass density ([1]; 298.1 K) [kg/m3] | Normal boiling temperature [1] [°C] | refractive index [2] | SMILES | mass density ([1]; 293.1 K) [kg/m3]
1 | 1044.3 ± 0.5 | 117.70 ± 0.2 | 1.3721 ± 0.0011 | CC(=O)O [acetic acid] | –
2 | – | 213.10 ± 0.2 | 1.5235 ± 0.0011 | CC(=O)OCc1ccccc1 [benzyl ethanoate] | 1055.2 ± 0.9
3 | 988 ± 0.5 | 140.90 ± 0.2 | 1.3811 ± 0.0011 | CCC(=O)O [propanoic acid] | –

Row | SMILES | mass density ([1]; 298.1 K) [kg/m3] | Normal boiling temperature [1] [°C] | refractive index [2] | mass density ([1]; 293.1 K) [kg/m3]
4 | CC(=O)CC(C)C [4-methylpentan-2-one] | 796.2 ± 1.1 | 116.30 ± 0.2 | 1.3959 ± 0.0011 | –
5 | CCCC#N [butanenitrile] | – | 117.40 ± 0.2 | 1.384 ± 0.0011 | 793.7 ± 1.1
